US20250361281A1, “AMYLIN RECEPTOR (hAMY3R) AGONISTS WITH IMPROVED CHEMICAL STABILITY” (GUBRA A/S, priority 2022, published 2025)
Starred links: 1 amine or outer side, 2 acyl side, 3 side chain; linkers in the order of their positions; H or OH if unused. Positions of bridges follow the written chain, without caps; N, C: chain ends. Non-standard residues stand in square brackets, D forms with d. Residues, ends and D or L forms follow the SMILES beside them. No end group written: not given here. *: point of attachment. C20 diacid = O=C(O)CCCCCCCCCCCCCCCCCCC(=O)*; γGlu = O=C(O)[C@H](CCC(=O)[*:2])N[*:1]; Hyp = O=C(O)[C@@H]1C[C@@H](O)CN1

Key:
[1] = cited from earlier work; for fibrillation at pH 7: pH 7, background statement
[2] = Physical stability of peptide analogues (Thioflavin T fibrillation); assay type: physicochemical; conditions: ThT fluorescence, 40° C., shaking, four days; pH 4 or pH 7 buffer
Description: General Protocols for Determination of Physical Stability of Peptide Analogues
Peptides were dissolved in buffers (50 mM sodium acetate at pH 4 or 50 mM sodium phosphate at pH 7) and incubated for one hour. The samples were then divided into two replicates of 80 μl in a black 384 well plate (μ-clear, Greiner Bio-One) and mixed with Thioflavin T (ThT) to a final concentration of 4 μM. The plate was sealed and placed in a plate reader (CLARIOstar, BMG) where the temperature was set at 40° C. during the course of the experiment. The samples were further stressed by shaking the plate at 700 rpm (linear) for five minutes before every measurement. The fluorescence was measured every 10 min for four days by exciting the ThT at 450 nm and measuring the emission at 480 nm. For each peptide, the ThT signal over time was smoothened using Local Polynomial Regression fitting (LOESS) as implemented in the statistical programming environment R. For the smoothened data, the maximum ThT signal was normalized in percent between the maximum ThT signal for hAMY and the buffer background.

[3] = Determination of dimer and HMWP formation (size exclusion chromatography); assay type: physicochemical; conditions: 50 mM phosphate buffer pH 7, 40° C., up to 28 days
Description: General Protocol for Determination of Dimer and HMWP Formation
Peptides were dissolved in 50 mM phosphate buffer (pH 7) and incubated at 40° C. for up to 28 days. The samples were then analysed using size exclusion chromatography analysis to quantify the amount of High Molecular Weight Products (HMWP), which is an overall term for covalently linked peptide dimers, trimers, and higher order multimers. Analyses were carried out on a Dionex Ultimate 3000 RS UHPLC Focused chromatography system (Thermo Scientific) equipped with a Acquity Protein BEH SEC 1.7 μm 4.6×300 mm 125 Å column (Waters part no 186006506). The solvent system consisted of two mobile phases that are assumed to break all non-covalent interactions between peptides leaving only monomeric peptide and covalent HMWP to be analysed. • Mobile phase A (all v/v %): 95% H2O, 5% MeCN (Acetonitrile), 0.1% TFA (Trifluoroacetic acid) • Mobile phase B (all v/v %): 95% MeCN, 5% H2O, 0.1% TFA
The typically load was 1 μl of 1.0 mg/ml, and the detection signal at 215 nm should optimally be between 0.1 and 1.5 abs units. Isocratic elution was done with 60% mobile phase B and a flow of 0.3 ml/min in 20 minutes. Chromatograms were integrated as HMWP (all peaks in front of the main peak) The amount of the various species was reported as area relative to total area in percentage.

hAMY3 receptor = molecular target: T1, hAMY3 receptor (Homo sapiens, UniProt O60896+P30988); conditions: previously shown (WO 2022/063925 A1); read-out: hAMY3R EC50; cited from earlier work
T1 construct: monoclonal sub-clone
T1 sequence (P30988 25-474): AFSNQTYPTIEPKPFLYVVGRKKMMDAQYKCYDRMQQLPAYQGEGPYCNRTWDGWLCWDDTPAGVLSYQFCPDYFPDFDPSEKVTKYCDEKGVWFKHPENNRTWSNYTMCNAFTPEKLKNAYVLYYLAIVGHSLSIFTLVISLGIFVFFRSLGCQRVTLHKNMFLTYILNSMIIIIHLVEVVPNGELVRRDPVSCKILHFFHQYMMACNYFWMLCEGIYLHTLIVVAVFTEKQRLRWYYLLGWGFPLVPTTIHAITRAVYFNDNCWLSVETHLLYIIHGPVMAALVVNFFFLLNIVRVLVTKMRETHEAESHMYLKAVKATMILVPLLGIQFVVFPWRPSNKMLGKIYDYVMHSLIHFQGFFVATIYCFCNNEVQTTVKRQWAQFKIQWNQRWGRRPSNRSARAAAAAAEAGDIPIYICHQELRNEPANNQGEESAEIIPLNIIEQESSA
T1 sequence (O60896 24-148 partner): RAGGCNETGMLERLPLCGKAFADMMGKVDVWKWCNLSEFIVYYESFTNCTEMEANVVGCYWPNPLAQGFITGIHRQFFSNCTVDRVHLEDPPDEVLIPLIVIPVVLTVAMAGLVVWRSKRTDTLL

hAM1 receptor = molecular target: T2, hAM1 receptor (Homo sapiens, UniProt O60895+Q16602); conditions: previously shown (WO 2022/063925 A1); read-out: hAM1R EC50; cited from earlier work
T2 construct: monoclonal sub-clone

[4] = Determination of deamidation and isomerization (LC-MS); assay type: physicochemical; conditions: 50 mM phosphate buffer pH 7, 40° C., up to 28 days
Description: General Protocol for Determination of Deamidation and Isomerization
Peptides were dissolved in 50 mM phosphate buffer (pH 7) and incubated at 40° C. for up to 28 days. The samples were then analysed on a Exploris120 mass spectrometer coupled to a Vanquish Tandem UPLC (both Thermo Fisher) equipped with an Acquity BEH C18 column (1.7 um, 2.1×50 mm, 130A, Waters). Peptides were eluted using a linear gradient starting at 5% over 7.5 min to 70% buffer B at a flow rate of 0.4 mL/min (buffer B=100% acetonitrile with 0.1% formic acid; buffer A=100% water with 0.1% formic acid). Data were acquired in data-dependent acquisition mode at a MS1 resolution of 60.000, and a MS2 resolution of 30.000 in positive mode (Top4). Peptides were fragmented with a normalized collision energy of 25%. Deamidation and isomerization were quantified using area under the curve integration.

[5] = molecular target: T3, human amylin receptor 3 (hAMY3R) (human, UniProt P30988 25-474; O60896 24-148); experiment: cell-based or functional assay
T3 sequence (looked up) 1: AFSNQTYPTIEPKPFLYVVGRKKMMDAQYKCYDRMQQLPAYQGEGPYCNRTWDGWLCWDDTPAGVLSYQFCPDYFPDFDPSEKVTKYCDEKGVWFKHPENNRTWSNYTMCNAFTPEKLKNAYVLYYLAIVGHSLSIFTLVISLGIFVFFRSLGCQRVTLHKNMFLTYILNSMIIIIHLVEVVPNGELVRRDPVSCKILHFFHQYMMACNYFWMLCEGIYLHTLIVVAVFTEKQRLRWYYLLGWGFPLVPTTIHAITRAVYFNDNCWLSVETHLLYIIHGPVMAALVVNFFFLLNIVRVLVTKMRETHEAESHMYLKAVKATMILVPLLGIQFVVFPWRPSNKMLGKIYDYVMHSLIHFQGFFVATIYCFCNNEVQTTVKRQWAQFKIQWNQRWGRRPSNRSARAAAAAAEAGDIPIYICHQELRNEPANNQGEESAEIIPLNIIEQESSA
T3 sequence (looked up) 2: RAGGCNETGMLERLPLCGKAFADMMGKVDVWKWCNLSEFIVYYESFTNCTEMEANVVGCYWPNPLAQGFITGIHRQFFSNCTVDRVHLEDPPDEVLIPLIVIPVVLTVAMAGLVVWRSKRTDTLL

[6] = molecular target: human adrenomedullin receptor 1 (hAM1R) (human, UniProt Q16602 23-461; O60895 43-175); experiment: cell-based or functional assay
Chain of human adrenomedullin receptor 1 (hAM1R) (Q16602 23-461, chain 1 of 2): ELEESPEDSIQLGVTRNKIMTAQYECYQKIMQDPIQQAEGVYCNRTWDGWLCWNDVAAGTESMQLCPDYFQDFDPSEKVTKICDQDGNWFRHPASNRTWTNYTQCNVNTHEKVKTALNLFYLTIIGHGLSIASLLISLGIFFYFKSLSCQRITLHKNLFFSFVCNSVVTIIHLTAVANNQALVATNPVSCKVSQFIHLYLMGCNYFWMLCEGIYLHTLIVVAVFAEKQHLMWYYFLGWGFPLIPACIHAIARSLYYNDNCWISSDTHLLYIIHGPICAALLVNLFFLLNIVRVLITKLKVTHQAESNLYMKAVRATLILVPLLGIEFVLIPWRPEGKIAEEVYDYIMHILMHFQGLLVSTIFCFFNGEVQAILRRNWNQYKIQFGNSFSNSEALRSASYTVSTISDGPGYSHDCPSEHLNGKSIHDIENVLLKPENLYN
Chain of human adrenomedullin receptor 1 (hAM1R) (O60895 43-175, chain 2 of 2): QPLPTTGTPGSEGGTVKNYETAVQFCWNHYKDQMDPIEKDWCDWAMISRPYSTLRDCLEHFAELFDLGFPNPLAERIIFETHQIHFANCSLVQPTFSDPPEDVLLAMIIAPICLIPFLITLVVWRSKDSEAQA

T2 sequence (Q16602 23-461): as the sequence (Q16602 23-461, chain 1 of 2) above
T2 sequence (O60895 43-175 partner): as the sequence (O60895 43-175, chain 2 of 2) above

Molecule | Fibril formation [2] | hAMY3R EC50 (nM), cAMP accumulation [5] | hAM1R EC50 (nM), cAMP accumulation [6] | also measured
CC[C@H](C)[C@H](NC(=O)[C@@H]1CCCN1C(=O)CNC(=O)[C@H](Cc1ccccc1)NC(=O)[C@H](CC(N)=O)NC(=O)[C@H](CC(N)=O)NC(=O)[C@H](CO)NC(=O)[C@H](CO)NC(=O)[C@H](Cc1c[nH]cn1)NC(=O)[C@@H](NC(=O)[C@H](CC(C)C)NC(=O)[C@H](Cc1ccccc1)NC(=O)[C@H](CC(N)=O)NC(=O)[C@H](C)NC(=O)[C@H](CC(C)C)NC(=O)[C@H](CCCNC(=N)N)NC(=O)[C@H](CCC(N)=O)NC(=O)[C@@H](NC(=O)[C@H](C)NC(=O)[C@@H]1CSSC[C@H](NC(=O)[C@@H](N)CCCCN)C(=O)N[C@@H](CC(N)=O)C(=O)N[C@@H]([C@@H](C)O)C(=O)N[C@@H](C)C(=O)N[C@@H]([C@@H](C)O)C(=O)N1)[C@@H](C)O)C(C)C)C(=O)N[C@@H](CC(C)C)C(=O)N1CCC[C@H]1C(=O)N1CCC[C@H]1C(=O)N[C@H](C(=O)N[C@@H](CC(N)=O)C(=O)N[C@H](C(=O)NCC(=O)N[C@@H](CO)C(=O)N[C@@H](CC(N)=O)C(=O)N[C@H](C(=O)N[C@@H](Cc1ccc(O)cc1)C(N)=O)[C@@H](C)O)C(C)C)[C@@H](C)O [Pramlintide] |  |  |  | fibrillation at pH 7 [1]: fibrillates
CC[C@H](C)[C@H](NC(=O)[C@H](CCC(N)=O)NC(=O)[C@H](Cc1c[nH]cn1)NC(=O)[C@H](C)NC(=O)[C@H](CC(C)C)NC(=O)[C@H](CCCCN)NC(=O)[C@H](CCC(N)=O)NC(=O)[C@@H](NC(=O)[C@@H](NC(=O)[C@@H]1CSSC[C@H](NC(=O)CN)C(=O)N[C@@H](CCCNC(=N)N)C(=O)N[C@@H](Cc2ccccc2)C(=O)NCC(=O)N[C@@H]([C@@H](C)O)C(=O)N1)[C@@H](C)O)C(C)C)C(=O)N[C@@H](Cc1ccc(O)cc1)C(=O)N[C@@H](CCC(N)=O)C(=O)N[C@@H](Cc1ccccc1)C(=O)N[C@H](C(=O)N[C@@H](CC(=O)O)C(=O)N[C@@H](CCCCN)C(=O)N[C@@H](CC(=O)O)C(=O)N[C@@H](CCCCN)C(=O)N[C@@H](CC(=O)O)C(=O)N[C@@H](CC(N)=O)C(=O)N[C@H](C(=O)N[C@@H](C)C(=O)N1CCC[C@H]1C(=O)N[C@@H](CCCNC(=N)N)C(=O)N[C@@H](CO)C(=O)N[C@@H](CCCCN)C(=O)N[C@H](C(=O)N[C@@H](CO)C(=O)N1CCC[C@H]1C(=O)N[C@@H](CCC(N)=O)C(=O)NCC(=O)N[C@@H](Cc1ccc(O)cc1)C(N)=O)[C@@H](C)CC)C(C)C)[C@@H](C)O [SEQ ID NO: 1] | No |  |  | fibrillation at pH 7 [1]: does not fibrillate
CC[C@H](C)[C@H](NC(=O)[C@H](C)NC(=O)CNC(=O)[C@H](Cc1ccccc1)NC(=O)[C@H](CC(N)=O)NC(=O)[C@H](CC(N)=O)NC(=O)[C@H](CO)NC(=O)[C@H](CO)NC(=O)[C@H](Cc1c[nH]cn1)NC(=O)[C@@H](NC(=O)[C@H](CC(C)C)NC(=O)[C@H](Cc1ccccc1)NC(=O)[C@H](CC(N)=O)NC(=O)[C@H](C)NC(=O)[C@H](CC(C)C)NC(=O)[C@H](CCCNC(=N)N)NC(=O)[C@H](CCC(N)=O)NC(=O)[C@@H](NC(=O)[C@H](C)NC(=O)[C@@H]1CSSC[C@H](NC(=O)[C@@H](N)CCCCN)C(=O)N[C@@H](CC(N)=O)C(=O)N[C@@H]([C@@H](C)O)C(=O)N[C@@H](C)C(=O)N[C@@H]([C@@H](C)O)C(=O)N1)[C@@H](C)O)C(C)C)C(=O)N[C@@H](CC(C)C)C(=O)N[C@@H](CO)C(=O)N[C@@H](CO)C(=O)N[C@H](C(=O)N[C@@H](CC(N)=O)C(=O)N[C@H](C(=O)NCC(=O)N[C@@H](CO)C(=O)N[C@@H](CC(N)=O)C(=O)N[C@H](C(=O)N[C@@H](Cc1ccc(O)cc1)C(N)=O)[C@@H](C)O)C(C)C)[C@@H](C)O [SEQ ID NO: 2] | Yes |  |  | 
CC[C@H](C)[C@H](NC(=O)[C@H](CCC(N)=O)NC(=O)[C@H](CCC(=O)O)NC(=O)[C@H](C)NC(=O)[C@H](CC(C)C)NC(=O)[C@H](CCCNC(=N)N)NC(=O)[C@H](CCC(N)=O)NC(=O)[C@@H](NC(=O)[C@@H](NC(=O)[C@@H]1CSSC[C@H](NC(=O)[C@H](CCCCN)NC(=O)CC[C@H](NC(=O)CCCCCCCCCCCCCCCCCCC(=O)O)C(=O)O)C(=O)N[C@@H](CC(N)=O)C(=O)N[C@@H]([C@@H](C)O)C(=O)N[C@@H](C)C(=O)N[C@@H]([C@@H](C)O)C(=O)N1)[C@@H](C)O)C(C)C)C(=O)N[C@@H](C)C(=O)N[C@@H](CCC(N)=O)C(=O)N[C@@H](Cc1ccccc1)C(=O)N[C@H](C(=O)N[C@@H](CC(=O)O)C(=O)N[C@@H](CCCCN)C(=O)N[C@@H](CC(=O)O)C(=O)N[C@@H](CCCCN)C(=O)N[C@@H](CC(=O)O)C(=O)N[C@@H](CC(N)=O)C(=O)N[C@H](C(=O)N[C@@H](C)C(=O)N1CCC[C@H]1C(=O)N1CCC[C@H]1C(=O)N[C@H](C(=O)N[C@@H](CC(N)=O)C(=O)N[C@H](C(=O)NCC(=O)N[C@@H](CO)C(=O)N[C@@H](CC(N)=O)C(=O)NCC(=O)N1C[C@H](O)C[C@H]1C(N)=O)C(C)C)[C@@H](C)O)C(C)C)[C@@H](C)O [SEQ ID NO: 3] ({C20 diacid-γGlu}-KCNTATCTVQRLAEQIAQFTDKDKDNVAPPTNVGSNG[Hyp]-NH2; disulfide 2-7) | No |  |  | Dimerization and HMWP formation [3]: 12%; EC50 (hAMY3 receptor): 14 nM; fibrillation ([1]; previously shown): no fibrillation; EC50 (hAM1 receptor): > 5000 nM; Deamidation [4]: 97%; Isomerization [4]: 5%
{C20 diacid-γGlu}-KCLTATCTVARLAEQIAQFTDKDKENVAPPTAVGSAG[Hyp] (bridge 2-7 via ‑S‑CH2‑S‑; also: C-terminal generally amidated (-CONH2) per the definitions) [polypeptide KCLTATCTVARLAEQIAQFTDKDKENVAPPTAVGSAG[Hyp] (SEQ ID NO: 4)] |  | 0.009 nM | > 5000 nM | 
{C20 diacid-γGlu}-KCNTATCTVQRLAEQIAQFTDKDKDNVAPPTNVGSNG[Hyp] (disulfide 2-7; also: C-terminal generally amidated (-CONH2) per the definitions) [reference polypeptide KCNTATCTVQRLAEQIAQFTDKDKDNVAPPTNVGSNG[Hyp] (SEQ ID NO: 3)] |  | 0.014 nM | > 5000 nM | 
KCNTATCATQRLANFLVHSSNNFGAILSSTNVGSNTY-NH2 (disulfide 2-7) [human amylin hAMY1-37] |  | 0.01 nM | > 5000 nM | 
